≈ marks a conversion by molar mass, not a printed value.
Experiment: Compound solubility in water
Assay type: physicochemical

| Compound Solubility in Water [µg/mL] | solubility [µg/mL] | SMILES |
| --- | --- | --- |
|  | 13.5 (≈ 34 µM) | CCc1cc(N2CCOCC2)nc2c(C(=O)NC(C3CC3)C(F)(F)F)cnn12 (stereo not shown) [III-238] |
|  | 0.1 (≈ 0.226 µM) | Cc1cc(-c2cccnc2C(F)(F)F)nc2c(C(=O)N[C@H](C3CC3)C(F)(F)F)cnn12 [III-355] |
|  | 9.4 (≈ 23.6 µM) | Cc1cc(N2CCN(C(C)C)C2=O)nc2c(C(=O)NC(C)C(F)(F)F)cnn12 (stereo not shown) [III-227] |
|  | 31.4 (≈ 73.3 µM) | Cc1cc(-c2cccc3ncn(C)c23)nc2c(C(=O)NC(C3CC3)C(F)(F)F)cnn12 (stereo not shown) [III-309] |
|  | 8.9 (≈ 22 µM) | COc1ccncc1-c1cc(C)n2ncc(C(=O)NC(C3CC3)C(F)(F)F)c2n1 (stereo not shown) [III-263] |
|  | 1.3 (≈ 3.21 µM) | COc1cncc(-c2cc(C)n3ncc(C(=O)NC(C4CC4)C(F)(F)F)c3n2)c1 (stereo not shown) [III-265] |
|  | 1.5 (≈ 3.82 µM) | COc1cccc(-c2cc(C)n3ncc(C(=O)NC(C)(C)C(F)(F)F)c3n2)c1 [III-405] |
|  | 0.7 (≈ 1.51 µM) | Cc1cc(N2CCN(CC(F)(F)F)C2=O)nc2c(C(=O)NC(C3CC3)C(F)(F)F)cnn12 (stereo not shown) [III-233] |
|  | 0.3 (≈ 0.759 µM) | Cc1cc(-c2cc(C)n3ncc(C(=O)N[C@H](C4CC4)C(F)(F)F)c3n2)sn1 [III-215] |
|  | 13.5 (≈ 36.2 µM) | CCc1cc(N2CCN(C(C)C)C2=O)nc2c(C(=O)NC(C)(C)C)cnn12 [III-229] |
|  | 4 (≈ 12.2 µM) | Cc1cc(NC2CC2)nc2c(C(=O)NC(C)C(F)(F)F)cnn12 (stereo not shown) [III-165] |
|  | 1.1 (≈ 3 µM) | Cc1cc(-c2ccc(F)cc2)nc2c(C(=O)NC(C)C(F)(F)F)cnn12 (stereo not shown) [III-164] |
|  | 11 (≈ 32.4 µM) | Cc1ncc(-c2cc(C)n3ncc(C(=O)NC(C)(C)C4CC4)c3n2)o1 [III-252] |
|  | 23 (≈ 57.7 µM) | Cc1cc(N2CCCN(C(C)C)C2=O)nc2c(C(=O)NC(C)(C)C3CC3)cnn12 [III-261] |
|  | 0.008 (≈ 0.0198 µM) | Cc1cc(C#N)c(-c2cc(C)n3ncc(C(=O)NC(C4CC4)C(F)(F)F)c3n2)o1 (stereo not shown) [III-245] |
|  | 1.1 (≈ 2.6 µM) | COc1cc(F)ccc1-c1cc(C)n2ncc(C(=O)NC(C3CC3)C(F)(F)F)c2n1 (stereo not shown) [III-149] |
|  | 1.3 (≈ 3.17 µM) | Cc1cc(N2CC(C)(C)NC2=O)nc2c(C(=O)NC(C3CC3)C(F)(F)F)cnn12 (stereo not shown) [III-319] |
|  | 3.8 (≈ 9.71 µM) | Cc1cc(-c2ccc(F)c(C#N)c2)nc2c(C(=O)NC(C)C(F)(F)F)cnn12 (stereo not shown) [III-159] |
|  | 0.7 (≈ 1.85 µM) | Cc1ncc(-c2cc(C)n3ncc(C(=O)N[C@@H](C4CC4)C(F)(F)F)c3n2)o1 [III-248] |
|  | 5.1 (≈ 12.6 µM) | Cc1cc(-c2sccc2C#N)nc2c(C(=O)NC(C3CC3)C(F)(F)F)cnn12 (stereo not shown) [III-189] |
|  | 12.5 (≈ 34.4 µM) | Cc1ccncc1-c1cc(C)n2ncc(C(=O)NC(C)C(F)(F)F)c2n1 (stereo not shown) [III-281] |

The remaining lines, values behind:

| SMILES | Compound Solubility in Water [µg/mL] | solubility [µg/mL] |
| --- | --- | --- |
| Cc1cc(-c2cccnc2F)nc2c(C(=O)NC(C3CC3)C(F)(F)F)cnn12 (stereo not shown) [III-113] | 1.0 |  |
| C#CC(C)(C)NC(=O)c1cnn2c(C)cc(-c3cccc(Cl)c3)nc12 [III-81] |  | 1.5 (≈ 4.25 µM) |
| COc1cccc(-c2cc(C)n3ncc(C(=O)N[C@@H](C)C4CC4)c3n2)c1 [III-57] |  | 2.7 (≈ 7.7 µM) |
| Cc1cc(-c2ccccn2)n2ncc(C(=O)N[C@@H](C)C3CC3)c2n1 [III-25] |  | 22.5 (≈ 70 µM) |
| Cc1cc(-c2cccnc2)nc2c(C(=O)N[C@H](C)c3ccc(Cl)cc3)cnn12 [III-37] |  | 2.1 (≈ 5.36 µM) |
| Cc1cc(-c2cccc(F)c2)nc2c(C(=O)N[C@H](C)C3CC3)cnn12 [III-92] |  | 0.2 (≈ 0.591 µM) |
| Cc1cc(-c2ccc(F)cc2)n2ncc(C(=O)N[C@@H](C)C3CC3)c2n1 [III-8] |  | 0.5 (≈ 1.48 µM) |
| COCc1cc(-c2cccc(OC)c2)nc2c(C(=O)NC(C)(C)C3CC3)cnn12 [III-79] |  | 0.5 (≈ 1.27 µM) |
| Cc1cc(-c2cnccc2F)nc2c(C(=O)NC(C3CC3)C(F)(F)F)cnn12 (stereo not shown) [III-124] |  | 1.9 (≈ 4.83 µM) |
| Cc1cc(N2CCCC(F)(F)C2)nc2c(C(=O)NC(C3CC3)C(F)(F)F)cnn12 (stereo not shown) [III-66] |  | 0.3 (≈ 0.719 µM) |
| Cc1cc(N2CCCC(F)(F)C2)nc2c(C(=O)NC(C)C3CC3)cnn12 (stereo not shown) [III-61] |  | 5.5 (≈ 15.1 µM) |
| Cc1cc(-c2cccc3ocnc23)nc2c(C(=O)NC(C3CC3)C(F)(F)F)cnn12 (stereo not shown) [III-106] |  | 0.1 (≈ 0.241 µM) |
| COCc1cc(-c2cccc(F)c2)nc2c(C(=O)NC(C)(C)C3CC3)cnn12 [III-74] |  | 0.8 (≈ 2.09 µM) |
| Cc1cc(Cl)n2ncc(C(=O)NC(C)(C)C3CC3)c2n1 [III-14] |  | 10.7 (≈ 36.5 µM) |
| CCc1cc(-c2ccccn2)n2ncc(C(=O)NC(C)C3CC3)c2n1 (stereo not shown) [III-48] |  | 19.8 (≈ 59 µM) |
| COc1ccc(F)c(-c2cc(C)n3ncc(C(=O)N[C@H](C)C(F)(F)F)c3n2)c1 [III-97] |  | 0.2 (≈ 0.505 µM) |
| Cc1cc(-c2cccnc2F)nc2c(C(=O)N[C@H](C3CC3)C(F)(F)F)cnn12 [III-114] |  | 2.1 (≈ 5.34 µM) |
| Cc1cc(-c2cccc(Cl)n2)nc2c(C(=O)N[C@@H](C)C3CC3)cnn12 [III-131] |  | 0.6 (≈ 1.69 µM) |
| Cc1cc(N2CCOCC2)nc2c(C(=O)NC(C)C3CC3)cnn12 (stereo not shown) [III-58] |  | 20.1 (≈ 61 µM) |
| Cc1cc(-c2ccc3ocnc3c2)nc2c(C(=O)N[C@H](C3CC3)C(F)(F)F)cnn12 [III-109] |  | 0.5 (≈ 1.2 µM) |
| COc1cccc(-c2cc(C)n3ncc(C(=O)NC(C)C(F)(F)F)c3n2)c1 (stereo not shown) [III-55] |  | 1.7 (≈ 4.49 µM) |
| Cc1cc(C)n2ncc(C(=O)N[C@@H](C)C3CCCCC3)c2n1 [III-4] |  | 16.1 (≈ 53.6 µM) |

Source: patent US9840510B1, “Pyrazolo[1,5-a]pyrimidinyl carboxamide compounds and their use in the treatment of medical disorders” (Lysosomal Therapeutics Inc., priority 2016, dated 2017)
